According to patent US7935722B2 (Eli Lilly and Company, priority 2005, dated 2011):
Like-named read-outs stand apart in the source and are kept apart here.

Assays:
[1] = biological target: T1, human AR (androgen receptor) (Homo sapiens, UniProt P10275); test: Steroid hormone nuclear receptor binding assay, AR binding
T1 construct: expressed in transfected cells; host or cells: 293 cells (293-AR lysate)
T1 sequence (P10275 1-920): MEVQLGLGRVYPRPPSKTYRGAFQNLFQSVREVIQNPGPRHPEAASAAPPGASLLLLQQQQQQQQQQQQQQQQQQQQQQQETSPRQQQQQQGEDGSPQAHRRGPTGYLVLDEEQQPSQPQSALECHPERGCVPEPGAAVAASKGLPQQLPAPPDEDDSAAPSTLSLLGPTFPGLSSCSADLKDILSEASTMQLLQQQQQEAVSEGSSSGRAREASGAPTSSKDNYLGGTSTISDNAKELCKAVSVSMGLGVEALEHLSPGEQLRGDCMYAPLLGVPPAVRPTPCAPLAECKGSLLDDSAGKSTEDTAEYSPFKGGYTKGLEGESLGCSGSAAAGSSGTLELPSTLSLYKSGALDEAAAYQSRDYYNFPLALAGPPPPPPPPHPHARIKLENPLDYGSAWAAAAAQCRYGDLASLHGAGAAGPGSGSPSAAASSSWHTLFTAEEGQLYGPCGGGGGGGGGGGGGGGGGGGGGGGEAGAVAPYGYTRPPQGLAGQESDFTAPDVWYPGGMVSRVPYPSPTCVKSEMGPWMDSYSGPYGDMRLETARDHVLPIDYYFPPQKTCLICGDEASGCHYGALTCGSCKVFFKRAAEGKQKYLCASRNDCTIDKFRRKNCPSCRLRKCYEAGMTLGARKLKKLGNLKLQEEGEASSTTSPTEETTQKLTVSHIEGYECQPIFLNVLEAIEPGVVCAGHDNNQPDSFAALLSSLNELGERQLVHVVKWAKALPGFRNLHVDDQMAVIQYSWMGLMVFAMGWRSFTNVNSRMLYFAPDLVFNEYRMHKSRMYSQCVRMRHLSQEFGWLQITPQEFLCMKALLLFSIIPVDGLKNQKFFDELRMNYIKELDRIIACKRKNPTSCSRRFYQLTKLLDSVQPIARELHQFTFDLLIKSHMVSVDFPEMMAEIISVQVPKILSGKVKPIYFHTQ
Protocol: Cell lysates from 293 cells overexpressing human GR (glucocorticoid receptor), AR (androgen receptor), MR (mineralocorticoid receptor) or PR (progesterone receptor) are used for competition binding assays to determine Ki values for test compounds. […] Competing compounds are added at various concentrations ranging from about 0.01 nM to 10 μM. Non-specific binding is determined in the presence of 500 nM dexamethasone for GR binding, 500 nM aldosterone for MR binding, or 500 nM methyltrienolone for AR and PR binding. The binding reaction (140 μl) is incubated for overnight at 4° C., then 70 μl of cold charcoal-dextran buffer (containing per 50 ml of assay buffer, 0.75 g of charcoal and 0.25 g of dextran) is added to each reaction. Plates are mixed 8 minutes on an orbital shaker at 4° C. Plates are then centrifuged at 3,000 rpm at 4° C. for 10 minutes. An aliquot of 120 μl of the mix is transferred to another 96-well plate and 175 μl of Wallac Optiphase “Hisafe 3” scintillation fluid is added to each well. Plates are sealed and shaken vigorously on an orbital shaker. After an incubation of 2 hrs, plates are read in a Wallac Microbeta counter. […] The Kd for ^3H-dexamethasone for GR binding, ^3H-methyltrienolone for AR binding, ^3H-aldosterone for MR binding, or ^3H-methyltrienolone for PR binding, is determined by saturation binding. The IC50 values for test compounds are converted to Ki using Cheng-Prusoff equation and the Kd determined by saturation binding assay. […]

[2] = biological target: T2, human androgen receptor (AR) (Homo sapiens, UniProt P10275); test: C2C12 AR/ARE reporter assay; assay type: cell-based
T2 construct: expressed in transfected cells; host or cells: mouse myoblast C2C12 cells, transiently co-transfected
T2 sequence (P10275 1-920): T1 sequence (P10275 1-920)
Protocol: As an indicator of agonist activity in muscle tissue, the C2C12 AR/ARE reporter assay is performed. Briefly, mouse myoblast C2C12 cells are co-transfected using FuGENE™. […] Cells are transfected in T150 cm^2 flasks in DMEM media with 4% or 10% Fetal Bovine Serum […]. After a 5 hour incubation, transfected cells are trypsinized, plated in 96 well dishes in DMEM media containing 10% charcoal-stripped FBS, incubated for 2 h and then exposed to various concentrations of test compounds ranging from about 0.01 nM to 10 μM. After 48 h of incubations with compounds, cells are lysed and luciferase activity is determined using standard techniques. Data is fit to a 4 parameter-fit logistics to determine EC50 values. The % efficacy is determined versus maximum stimulation obtained with 10 nM methyltrienolone. […]

[3] = C2C12, read-out: C2C12 % Efficacy
[4] = average of n trials, read-out: AR binding Ki
[5] = C2C12 AR/ARE reporter assay, average of n trials, read-out: C2C12 % Efficacy
[6] = C2C12 AR/ARE reporter assay, average of n trials, read-out: C2C12 EC50

CC(C)C(=O)NC1CCc2c(c3cc(C#N)ccc3n2Cc2cnc(Cl)s2)C1 (stereo not drawn) [Example 155, N-[9-(2-Chloro-thiazol-5-ylmethyl)-6-cyano-2,3,4,9-tetrahydro-1H-carbazol-3-yl]-isobutyramide]
Ki [1]: 13.5 nM | EC50 [2]: 102 nM | Emax [2, 3]: 54.8%

COC(=O)N[C@@H]1CCc2c(c3cc(C#N)ccc3n2Cc2cccc(F)n2)C1 [Example 186, (R)-[6-Cyano-9-(6-fluoro-pyridin-2-ylmethyl)-2,3,4,9-tetrahydro-1H-carbazol-3-yl]-carbamic acid methyl ester]
Ki [1]: 7.1 nM | EC50 [2]: 17.4 nM | Emax [2, 3]: 103%

CC(C)C(=O)NC1CCc2c(c3cc(C#N)c(Cl)cc3n2Cc2cccc(F)c2)C1 (stereo not drawn) [Example 118, N-[7-Chloro-6-cyano-9-(3-fluoro-benzyl)-2,3,4,9-tetrahydro-1H-carbazol-3-yl]-isobutyramide]
Ki [1]: 5.9 nM | EC50 [2]: 31.7 nM | Emax [2, 3]: 124%

CN(C)C(=O)NC1CCc2c(c3cc(OC(F)(F)F)ccc3n2Cc2cccc(F)c2)C1 (stereo not drawn) [Example 169]
Ki [1, 4]: 8.3 nM | Emax [2, 5]: 76.8% | EC50 [2, 6]: 6.5 nM

CC(C)C(=O)N[C@@H]1CCc2c(c3cc(C#N)ccc3n2Cc2cnccn2)C1 [Example 160, (R)-N-(6-Cyano-9-pyrazin-2-ylmethyl-2,3,4,9-tetrahydro-1H-carbazol-3-yl)-isobutyramide]
Ki [1]: 19.8 nM | EC50 [2]: 6.3 nM | Emax [2, 3]: 89.5%

CCC(=O)NC1CCc2c(c3cc(Br)ccc3n2Cc2cccc(F)c2)C1 (stereo not drawn) [Example 175]
Ki [1]: 3.2 nM | EC50 [2]: 11.2 nM | Emax [2, 3]: 80.2%

COc1ccc2c(c1)c1c(n2Cc2ccccc2F)CCC(NC(=O)C(C)C)C1 (stereo not drawn) [Example 78]
Ki [1]: 187 nM | EC50 [2]: 238 nM | Emax [2, 3]: 71.5%

CC(C)C(=O)NC1CCc2c(c3cc(C#N)ccc3n2Cc2ccccn2)C1 (stereo not drawn) [Example 146]
Ki [1]: 12.7 nM | EC50 [2]: 15.5 nM | Emax [2, 3]: 86.8%

Cc1ccc(-c2ccc3c(c2)c2c(n3Cc3cccc(F)c3)CCC(NC(=O)C(C)C)C2)nn1 (stereo not drawn) [Example 139, N-[9-(3-Fluoro-benzyl)-6-(6-methyl-pyridazin-3-yl)-2,3,4,9-tetrahydro-1H-carbazol-3-yl]-isobutyramide]
Ki [1, 4]: 34.9 nM | Emax [2, 5]: 96.9% | EC50 [2, 6]: 19.4 nM

CC(C)C(=O)NC1CCc2c(c3cc(OC(F)(F)F)ccc3n2Cc2cccc(F)n2)C1 (stereo not drawn) [Example 162, N-[9-(6-Fluoro-pyridin-2-ylmethyl)-6-trifluoromethoxy-2,3,4,9-tetrahydro-1H-carbazol-3-yl]-isobutyramide]
Ki [1]: 8.6 nM | EC50 [2]: 9.2 nM | Emax [2, 3]: 81.7%

O=C(NC1CCc2c(c3cc(Br)ccc3n2Cc2cccc(F)c2)C1)C(F)(F)F (stereo not drawn) [Example 174]
Ki [1, 4]: 7.1 nM | Emax [2, 5]: 65.2% | EC50 [2, 6]: 88 nM

CC(C)C(=O)NC1CCc2c(c3cc(Cl)ccc3n2Cc2ccccc2N)C1 (stereo not drawn) [Example 106, N-[9-(2-Amino-benzyl)-6-chloro2,3,4,9-tetrahydro-1H-carbazol-3-yl]-isobutyramide]
Ki [1, 4]: 8.2 nM | Emax [2, 5]: 82.1% | EC50 [2, 6]: 2.3 nM

CC(C)C(=O)NC1CCc2c(c3cc(C#N)cc(F)c3n2Cc2cccc(F)c2)C1 (stereo not drawn) [Example 121, N-[6-Cyano-8-fluoro-9-(3-fluoro-benzyl)-2,3,4,9-tetrahydro-1H-carbazol-3-yl]-isobutyramide]
Ki [1]: 2.9 nM | EC50 [2]: 6.2 nM | Emax [2, 3]: 110%

CC(C)C(=O)NC1CCc2c(c3cc(Cl)ccc3n2Cc2ccccc2[N+](=O)[O-])C1 (stereo not drawn) [Example 104, N-[6-Chloro-9-(2-nitro-benzyl)-2,3,4,9-tetrahydro-1H-carbazol-3-yl]-isobutyramide]
Ki [1, 4]: 22.5 nM | Emax [2, 5]: 71.6% | EC50 [2, 6]: 555 nM

COc1ccc2c(c1)c1c(n2Cc2ccncc2)CCC(NC(=O)C(C)C)C1 (stereo not drawn) [Example 145]
Ki [1]: 1400 nM | EC50 [2]: 2050 nM | Emax [2, 3]: 46.6%

CO/N=C/c1ccc2c(c1)c1c(n2Cc2cccc(F)c2)CCC(NC(=O)C2CC2)C1 (stereo not drawn) [Example 202, Cyclopropanecarboxylic acid[9-(3-fluorobenzyl)-6-(methoxyimino-methyl)-2,3,4,9-tetrahydro-1H-carbazol-3-yl]-amide]
Ki [1]: 4.7 nM | EC50 [2]: 1.5 nM | Emax [2, 3]: 90.5%

CC(C)C(=O)NC1CCc2c(c3cc(O)ccc3n2Cc2cccc(F)c2)C1 (stereo not drawn) [Example 91, N-[9-(3-Fluoro-benzyl)-6-hydroxy-2,3,4,9-tetrahydro-1H-carbazol-3-yl]-isobutyramide]
Ki [1]: 11.8 nM | EC50 [2]: 97.1 nM | Emax [2, 3]: 86.9%

CC(C)C(=O)NC1CCc2c(c3cc(C#N)ccc3n2Cc2ccccc2)C1 (stereo not drawn) [Example 85]
Ki [1]: 4.6 nM | EC50 [2]: 3.8 nM | Emax [2, 3]: 79.8%

Cc1csc(Cn2c3c(c4cc(C#N)ccc42)C[C@H](NC(=O)C(C)C)CC3)n1 [Example 156, (R)-N-[6-Cyano-9-(4-methyl-thiazol-2-ylmethyl)-2,3,4,9-tetrahydro-1H-carbazol-3-yl]-isobutyramide]
Ki [1]: 10.8 nM | EC50 [2]: 30.5 nM | Emax [2, 3]: 79.4%

CC(C)C(=O)NC1CCc2c(c3cc(-c4ccc(N)nc4)ccc3n2Cc2cccc(F)c2)C1 (stereo not drawn) [Example 142]
Ki [1, 4]: 31.8 nM | Emax [2, 5]: 61.8% | EC50 [2, 6]: 23.7 nM

CC(C)C(=O)NC1CCc2c(c3c(F)c(C#N)ccc3n2Cc2cccc(F)c2)C1 (stereo not drawn) [Example 116, N-[6-Cyano-5-fluoro-9-(3-fluoro-benzyl)-2,3,4,9-tetrahydro-1H-carbazol-3-yl]-isobutyramide]
Ki [1]: 3.4 nM | EC50 [2]: 2.7 nM | Emax [2, 3]: 78.3%

CC(C)C(=O)N[C@@H]1CCc2c(c3cc(-c4nncs4)ccc3n2Cc2cccc(F)c2)C1 [Example 127, (R)-N-[9-(3-Fluorobenzyl)-6-[1,3,4]thiadiazole-2-yl-2,3,4,9-tetrahydro-1H-carbazol-3-yl]isobutyramide]
Ki [1, 4]: 10.4 nM | Emax [2, 5]: 72.2% | EC50 [2, 6]: 21 nM

CC(C)C(=O)NC1CCc2c(c3cc(C#N)ccc3n2Cc2cc(F)cc(F)c2)C1 (stereo not drawn) [Example 89]
Ki [1]: 3.3 nM | EC50 [2]: 1.9 nM | Emax [2, 3]: 78.5%

CC(C)C(=O)NC1CCc2c(c3cc(C#N)ccc3n2Cc2cccc([N+](=O)[O-])c2)C1 (stereo not drawn) [Example 88, N-[6-cyano-9-(3-nitro-benzyl)2,3,4,9-tetrahydro-1H-carbazol-3-yl]-isobutyramide]
Emax [2, 3]: 96.1%

COc1ccc2c(c1)c1c(n2Cc2ccc(F)cc2)CCC(NC(=O)C(C)C)C1 (stereo not drawn) [Example 80]
Emax [2, 3]: 59.9%

COC(=O)c1cccc(Cn2c3c(c4cc(Cl)ccc42)CC(NC(=O)C(C)C)CC3)c1 (stereo not drawn) [Example 84]
Emax [2, 3]: 32.9%

COc1ccc(Cn2c3c(c4cc(OC)ccc42)CC(NC(=O)C(C)C)CC3)cc1 (stereo not drawn) [Example 74]
Emax [2, 3]: 22.6%

COc1ccc2c(c1)c1c(n2Cc2ccccc2OC)CCC(NC(=O)C(C)C)C1 (stereo not drawn) [Example 72]
Emax [2, 3]: 66.4%

COc1cccc(Cn2c3c(c4cc(F)ccc42)CC(NC(=O)C(C)C)CC3)c1 (stereo not drawn) [Example 10]
Emax [2, 3]: 40.4%
